Measurements taken from patent publication US5872122A, “Pyrimidinylamidino β-amino acid derivatives useful as inhibitors of platelet aggregation” (Monsanto Company, priority 1997, dated 1999).

System: platelet aggregation
Experiment: In-Vitro Platelet Aggregation in PRP (ADP-induced)
Type: cell-based
Conditions: Canis lupus familiaris; dog platelet-rich plasma; ADP 50 μM final; 1 min preincubation at 37° C.; read-out: IC50 (dosage at which 50% of platelet aggregation is inhibited)
Experimental: Healthy male or female dogs were fasted for 8 hours prior to drawing blood; then 30 mL whole blood was collected using a butterfly needle and 30 mL plastic syringe with 3 mL of 0.129M buffered sodium citrate (3.8%). The syringe was rotated carefully as blood was drawn to mix the citrate. Platelet-rich plasma (PRP) was prepared by centrifugation at 975×g for 3.17 minutes at room temperature allowing the centrifuge to coast to a stop without braking. The PRP was removed from the blood with a plastic pipette and placed in a plastic-capped 50 mL Corning conical sterile centrifuge tube which was held at room temperature. Platelet-poor plasma (PPP) was prepared by centrifuging the remaining blood at 2000×g for 15 minutes at room temperature allowing the centrifuge to coast to a stop without braking. The PRP was adjusted with PPP to a count of 2-3×10^8 platelets/mL. The PRP preparation (400 μL) and 50 μL of the compound solution to be tested or saline were preincubated for 1 minute at 37° C. in a BioData aggregometer (BioData, Horsham, Pa.). Adenosine-5'-diphosphate (ADP, 50 μL, 50 μM final concentration) was added to the cuvettes and the aggregation was monitored for 1 minute. All compounds are tested in duplicate. Results are calculated as follows: Percent of control=[(maximal OD minus initial OD of compound) divided by (maximal OD minus initial OD of control saline)]×100. The percent inhibition equals 100-(percent of control).
The compounds tested and their median inhibitory concentrations (IC50) are recorded in Table 1. The IC50 (dosage at which 50% of platelet aggregation is inhibited) were calculated by linear regression of the dose response curve.

In order of falling IC50:
1. N=C(N)c1cnc(CCCCC(=O)NCCC(=O)O)nc1 [Ex. 4, N-[5-[5-(aminoiminomethyl)-2-pyrimidinyl]-1-oxopentyl]-β-alanine]  50000 nM
2. N=C(N)c1cnc(CCCCC(=O)NC(CC(=O)O)c2ccccc2)nc1 (stereo not drawn) [Ex. 3, β-[[5-[5-(aminoiminomethyl)-2-pyrimidinyl]-1-oxopentyl]amino]-phenylpropanoic acid]  2200 nM
3. N=C(N)c1cnc(CCCCC(=O)N[C@@H](CC(=O)O)C(=O)N[C@@H](Cc2ccccc2)C(N)=O)nc1 (relative stereo) [Ex. 1, [S,(R*,R*)]-3-[[5-[5-(aminoiminomethyl)-2-pyrimidinyl]-1-oxopentyl]amino]-4-[[2-amino-2-oxo-1-(phenylmethyl)ethyl]amino]-4-oxobutanoic acid]  590 nM
4. N=C(N)c1cnc(CCCCC(=O)NC(CC(=O)O)c2cccnc2)nc1 (stereo not drawn) [Ex. 6, β-[[5-[5-(aminoiminomethyl)-2-pyrimidinyl]-1-oxopentyl]amino]-3-pyridinepropanoic acid]  530 nM
5. N=C(N)c1cnc(CCCCC(=O)N[C@@H](CC(=O)O)C(=O)N[C@@H](Cc2ccccc2)C(=O)O)nc1 [Ex. 2]  110 nM
